Experimental data: paper PMC4977194 (Bioorganic & medicinal chemistry letters, 2016)

Experiments:
[1] = target: VMAT2 (Rattus norvegicus, UniProt Q01827); assay: Vesicular [3H]DA uptake assay; type: biochemical; conditions: for further improvement in inhibitory potency at VMAT2 on hydrolysis of the 4-acetoxy groups: relative to acetoxy precursors 4 and 5
[2] = target: SERT (Rattus norvegicus, UniProt P31652); assay: Synaptosomal [3H]5-HT uptake assay; type: biochemical
Chain of SERT (P31652 whole entry): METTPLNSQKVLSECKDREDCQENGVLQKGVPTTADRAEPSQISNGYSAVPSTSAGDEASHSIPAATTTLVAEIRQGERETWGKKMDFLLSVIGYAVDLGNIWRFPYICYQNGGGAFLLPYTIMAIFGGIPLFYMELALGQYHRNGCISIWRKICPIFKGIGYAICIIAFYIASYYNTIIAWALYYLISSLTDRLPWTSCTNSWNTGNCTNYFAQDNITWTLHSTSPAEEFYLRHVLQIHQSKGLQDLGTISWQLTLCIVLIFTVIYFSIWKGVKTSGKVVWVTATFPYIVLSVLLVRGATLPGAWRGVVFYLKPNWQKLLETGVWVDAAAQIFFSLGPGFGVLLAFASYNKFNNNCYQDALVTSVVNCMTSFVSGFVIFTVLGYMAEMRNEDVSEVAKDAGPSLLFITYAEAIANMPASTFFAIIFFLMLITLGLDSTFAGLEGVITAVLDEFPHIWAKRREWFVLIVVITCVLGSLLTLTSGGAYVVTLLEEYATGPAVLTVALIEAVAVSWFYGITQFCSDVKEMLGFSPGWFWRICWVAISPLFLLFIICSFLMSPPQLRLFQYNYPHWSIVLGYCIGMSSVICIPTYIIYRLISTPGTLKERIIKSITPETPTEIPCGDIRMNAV

Chain of VMAT2 (Q01827 whole entry): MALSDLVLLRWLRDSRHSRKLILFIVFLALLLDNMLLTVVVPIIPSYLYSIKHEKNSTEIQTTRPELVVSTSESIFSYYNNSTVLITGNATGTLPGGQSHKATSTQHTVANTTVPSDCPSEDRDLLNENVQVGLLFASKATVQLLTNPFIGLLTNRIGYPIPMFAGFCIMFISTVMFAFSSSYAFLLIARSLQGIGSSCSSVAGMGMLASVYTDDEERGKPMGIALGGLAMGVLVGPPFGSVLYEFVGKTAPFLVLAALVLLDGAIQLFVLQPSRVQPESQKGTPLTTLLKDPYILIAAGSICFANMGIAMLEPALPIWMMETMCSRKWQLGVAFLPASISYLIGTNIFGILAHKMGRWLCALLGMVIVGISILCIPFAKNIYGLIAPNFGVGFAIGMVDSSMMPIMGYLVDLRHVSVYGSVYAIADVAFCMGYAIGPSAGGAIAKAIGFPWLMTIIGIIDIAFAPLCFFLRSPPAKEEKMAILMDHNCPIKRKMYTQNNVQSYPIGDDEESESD

CC(=O)Oc1ccc(CC[C@H]2CCC[C@@H](CCc3ccc(OC(C)=O)cc3)N2C)cc1.Cl [Compound 5]
improved inhibitory potency at VMAT2 relative to 4 ([1]; N-methylation of 4): 3 fold

CN1[C@@H](CCc2ccc(O)cc2)CCC[C@H]1CCc1ccc(O)cc1.Cl [Compound 6]
further improvement in inhibitory potency at VMAT2 on hydrolysis of the 4-acetoxy groups [1]: about 2 fold

Cl.Oc1ccc(CC[C@H]2CCC[C@@H](CCc3ccc(O)cc3)N2)cc1 [Compound 7]
further improvement in inhibitory potency at VMAT2 on hydrolysis of the 4-acetoxy groups [1]: about 2 fold

Cl.FCCOc1ccc(CC[C@H]2CCC[C@@H](CCc3ccc(OCCF)cc3)N2)cc1 [Compound 13]
greater affinity for SERT than lobelane [2]: 6 fold

Cl.OC[C@H](O)CN1[C@@H](CCc2ccc(O)cc2)CCC[C@H]1CCc1ccc(OCCF)cc1 [Compound 16]
greater affinity for SERT than GZ-793A [2]: 7 fold

Cl.OC[C@H](O)CN1[C@@H](CCc2ccc(OCCF)cc2)CCC[C@H]1CCc1ccc(OCCF)cc1 [Compound 17]
decrease in affinity for SERT when compared to GZ-793A [2]: 4 fold
